Test system: cytotoxicity counter-screen, cell viability, 2% serum
Assay: viability loss in CXCR4-tropic fusion assay cells – cell-based, 2% serum, set 2, cytotoxicity control for HIV-1 antiviral lead project, dose response (AID 504574)

With `Cc1c2c(=O)n(-c3nc4ccccc4s3)nc-2cc(O)n1C1CC1` the CC50 was 3.82 µM.

In the case of `Cc1c2c(=O)n(-c3nc4ccccc4s3)nc-2cc(O)n1Cc1ccc(F)cc1`, the CC50 is reported as 4.88 µM.

With `COc1ccc(Cn2c(O)cc3nn(-c4nc5ccccc5s4)c(=O)c-3c2C)cc1` the CC50 was 5.52 µM.

`COc1ccccc1Cn1c(O)cc2nn(-c3nc4ccccc4s3)c(=O)c-2c1C` showed a CC50 of 15.1 µM.

In the case of `Cc1c2c(=O)n(-c3nc4ccccc4s3)nc-2cc(O)n1CCC(C)C`, the CC50 is reported as 18.6 µM.

Compound `Cc1c2c(=O)n(-c3nc4ccccc4s3)nc-2cc(O)n1Cc1ccccc1Cl` has a CC50 of 6.06 µM.

`Cc1c2c(=O)n(-c3nc4ccccc4s3)nc-2cc(O)n1Cc1ccccc1` showed a CC50 of 8.94 µM.

`COc1ccc(CCn2c(O)cc3nn(-c4nc5ccccc5s4)c(=O)c-3c2C)cc1` gave a CC50 of 23.4 µM.

`Cc1c2c(=O)n(-c3nc4ccccc4s3)nc-2cc(O)n1Cc1cccs1` gave a CC50 of 5.51 µM.

In the case of `Cc1c2c(=O)n(-c3nc4ccccc4s3)nc-2cc(O)n1Cc1cccnc1`, the CC50 is reported as 7.86 µM.

`Cc1c2c(=O)n(-c3nc4ccccc4s3)nc-2cc(O)n1CCc1cccs1` gave a CC50 of 16 µM.

Compound `Cc1c2c(=O)n(-c3nc4ccccc4s3)nc-2cc(O)n1Cc1ccncc1` has a CC50 of 9.26 µM.

Work on `Cc1c2c(=O)n(-c3nc4ccccc4s3)nc-2cc(O)n1CCc1ccc(O)cc1` yielded a CC50 of 3.34 µM.

— PubChem BioAssay AID504574 (Southern Research Specialized Biocontainment Screening …, 2011)
